The text below walks through data of patent publication US5399699A, “Indole iminooxy derivatives which inhibit leukotriene biosynthesis” (Abbott Laboratories, priority 1994, dated 1995).

In assay [1] the test system is LTB4 biosynthesis in human polymorphonuclear leukocytes (PMNL). The experiment in a line: Inhibition of calcium ionophore (A23187)-induced LTB4 biosynthesis in human PMNL. It is filed as cell-based. To be noted: 15 min preincubation at 37° C., A23187 8.3 μM, 10 min, LTB4 by HPLC. The procedure: Inhibition of leukotriene biosynthesis was evaluated in assays, involving calcium ionophore-induced LTB4 biosynthesis expressed by human polymorphonuclear leukocytes (PMNL) or human whole blood. Human PMNL were isolated from heparinized (20 USP units/mL) venous blood using Ficoll-Hypaque Mono-Poly Resolving Medium. Human PMNL suspensions (5×10^6 cells/250 μL) were preincubated with test compounds or vehicle for 15 min at 37° C. followed by calcium ionophore A23187 challenge (final concentration of 8.3 μM) and the reaction terminated after 10 min by adding two volumes of methanol containing prostaglandin B2 as an internal recovery standard. The methanol extracts were analyzed for LTB4 content by HPLC.

The next assay deals with leukotriene biosynthesis. The experiment in a line: Inhibition of leukotriene biosynthesis in vivo, rat peritoneal anaphylaxis model, oral administration. To be noted: 1 h, by gavage one hour prior to antigen challenge. The procedure:
Inhibition of the biosynthesis of leukotrienes in vivo after oral administration of compound was determined using a rat peritoneal anaphylaxis model in a similar manner as that described by Young and coworkers (Young, P. R.; Dyer, R. D.; Carter, G. W. Fed. Proc., Fed. Am. Sec. Exp. Biol. 1985, 44, 1185). In this model rats were injected intraperitoneally (ip) with rabbit antibody to bovine serum albumin (BSA) and three hours later injected ip with BSA to induce an antigen-antibody response. Rats were sacrificed 15 minutes after this challenge and the peritoneal fluids were collected and analyzed for leukotriene levels. Test compounds were administered by gavage one hour prior to the antigen challenge. Percent inhibition values were determined by comparing the treatment group to the mean of the control group.

SMILES strings stand for the structures.

`CC(=NOCC(C)(C)Cc1c(SC(C)(C)C)c2cc(OCc3ccc4ccccc4n3)ccc2n1Cc1ccc(Cl)cc1)C(=O)O` [Example 2, 1-(4-chlorobenzyl)-3-(t-butylthio)-5-(2-quinolinemethoxy)indol-2-yl(2,2-dimethyl)prop-3-yl-iminooxy-2-propionic acid]: in assay [1], the IC50 (as a rule, the midpoint of a concentration-inhibition curve) came out at 10 nM.
Turning to `CC(C)(CON=CC(=O)O)Cc1c(SC(C)(C)C)c2cc(OCc3ccc4ccccc4n3)ccc2n1Cc1ccc(Cl)cc1` [Example 1], the IC50 in assay [1] is 10 nM. Besides, the 50% effect level in the assay with leukotriene biosynthesis (ED50) was put at a dose of 0.9 mg/kg.
With `CC(=NOCC(C)(C)Cc1c(SC(C)(C)C)c2cc(OCc3cscn3)ccc2n1Cc1ccc(Cl)cc1)C(=O)O` [Example 5, 1-(4-chlorobenzyl)-3-(t-butylthio)-5-(4-thiazolylmethoxy)indol-2-yl-(2,2-dimethyl)prop-3-yliminooxy-2-propionic acid], the IC50 in assay [1] turned out to be 8 nM.
As for `CC(C)(CON=CC(=O)O)Cc1c(SC(C)(C)C)c2cc(OCc3ccc4ccccc4n3)ccc2n1Cc1ccc(F)cc1` [Example 6, 1-(4-fluorobenzyl)-3-(t-butylthio)-5-(2-quinolinylmethoxy)indol-2-yl-(2,2-dimethyl)prop-3-yliminooxyacetic acid], in assay [1], the IC50 was 5 nM.
